Experimental data: PubChem BioAssay (NCI)
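Exposure lasted 48 hours, with cells grown in 96-well plates and compounds tested at five concentrations. TGI marks complete inhibition of growth.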

Columns and labels:
Assay in all cases: inhibition of tumour cell growth, NCI panel, 48 h
MCF7 breast = tested on: MCF7 breast
SK-MEL-28 melanoma = tested on: SK-MEL-28 melanoma
OVCAR-8 ovarian = tested on: OVCAR-8 ovarian
HT29 colon = tested on: HT29 colon
SF-268 CNS = tested on: SF-268 CNS
IGROV1 ovarian = tested on: IGROV1 ovarian
SF-295 CNS = tested on: SF-295 CNS
PC-3 prostate = tested on: PC-3 prostate
OVCAR-3 ovarian = tested on: OVCAR-3 ovarian
HOP-92 NSCLC = tested on: HOP-92 NSCLC
KM12 colon = tested on: KM12 colon
MDA-MB-231 breast = tested on: MDA-MB-231 breast
A549 NSCLC = tested on: A549 NSCLC
DU-145 prostate = tested on: DU-145 prostate
SF-539 CNS = tested on: SF-539 CNS
SK-OV-3 ovarian = tested on: SK-OV-3 ovarian
NCI-H460 lung = tested on: NCI-H460 lung
HL-60(TB) leukemia = tested on: HL-60(TB) leukemia
SN12C renal = tested on: SN12C renal
K-562 leukemia = tested on: K-562 leukemia

Row | SMILES | TGI (MCF7 breast) [µM] | TGI (SK-MEL-28 melanoma) [µM] | TGI (OVCAR-8 ovarian) [µM] | TGI (HT29 colon) [µM] | TGI (SF-268 CNS) [µM] | TGI (IGROV1 ovarian) [µM] | TGI (SF-295 CNS) [µM] | TGI (PC-3 prostate) [µM] | TGI (OVCAR-3 ovarian) [µM] | TGI (HOP-92 NSCLC) [µM] | TGI (KM12 colon) [µM] | TGI (MDA-MB-231 breast) [µM] | TGI (A549 NSCLC) [µM] | TGI (DU-145 prostate) [µM] | TGI (SF-539 CNS) [µM] | TGI (SK-OV-3 ovarian) [µM] | TGI (NCI-H460 lung) [µM] | TGI (HL-60(TB) leukemia) [µM] | TGI (SN12C renal) [µM] | TGI (K-562 leukemia) [µM]
1 | CO[C@H]1C[C@H](O[C@H]2CC[C@]3(C=O)[C@H]4CC[C@]5(C)[C@@H](C6=CC(=O)OC6)CC[C@]5(O)[C@@H]4CC[C@]3(O)C2)O[C@H](C)[C@H]1O[C@@H]1O[C@H](CO[C@@H]2O[C@H](CO)[C@@H](O)[C@H](O)[C@H]2O)[C@@H](O)[C@H](O)[C@H]1O | 0.677 | 1.15 | 0.167 | 0.188 | 0.164 | 0.825 | 0.161 | 0.33 | 0.0809 | 0.367 | 0.515 | 2.1 | 0.0254 | 0.0413 | 0.12 | 0.21 | 0.0425 | 0.2 | 0.11 | > 100
2 | CCOC(=O)c1nc2ccc(C(F)(F)F)cc2nc1Nc1ccc(OC)c(OC)c1 | > 100 | > 100 | > 100 | > 100 | > 100 | > 100 | > 100 | > 100 | > 100 | > 100 | > 100 | > 100 | > 100 | > 100 | > 100 | > 100 | > 100 | > 100 | > 100 | > 100
3 | O=C1c2cccnc2-c2nccc3ccnc1c23 | 1.7 | 2.58 | 2.17 | 2.09 | 6.58 | 2.12 | 2.78 | 3.45 | 1.49 | 2.36 | 2.66 | 6.52 | 6.82 | 2.65 | 4.81 | 2.9 | 12.8 | 0.185 | 2.36 | 0.666
4 | CN(C)C1COC2Cc3ccccc3C1O2 (stereo not given) | > 100 | > 100 | > 100 | > 100 | > 100 | > 100 | > 100 | > 100 | > 100 | > 100 | > 100 | > 100 | > 100 | > 100 | > 100 | > 100 | > 100 | > 100 | > 100 | > 100
5 | CCNC(=O)Cc1nc2c(=O)[nH]cnc2n1C1OC(CO)C(O)C1O (stereo not given) | > 100 | > 100 | > 100 | > 100 | > 100 | > 100 | > 100 | > 100 | > 100 | > 100 | > 100 | > 100 | > 100 | > 100 | > 100 | > 100 | > 100 | > 100 | > 100 | > 100
6 | CC1=C/C(=C(/c2ccc(O)c(C)c2)c2ccccc2C(=O)O)C=CC1=O | 34.5 | 40 | 36.3 | 42.8 | 57.1 | 34.1 | 44.2 | 35.9 | 33.2 | 34.8 | 36.6 | 40.4 | 35.3 | 35.6 | 35.2 | 35.1 | > 100 | 43.6 | 36.7 | 44.7
7 | Clc1ccc(-c2cc(-c3nc4ccccc4[nH]3)no2)cc1 | 31 | 40.5 | 67.4 | 35.3 | 45.9 | 62.1 | 33 | 48.4 | 35.7 | 66.7 | 40 | 35.5 | 36 | 24.6 | 74.3 | 35.8 | 32.6 | 37.2 | 35 | 50.2
8 | O=C(NO)c1ccc(OCc2ccccc2)cc1 | > 100 | > 100 | 28.7 | > 100 | > 100 | > 100 | > 100 | > 100 | > 100 | > 100 | > 100 | > 100 | > 100 | 68.9 | > 100 | > 100 | > 100 | > 100 | > 100 | > 100
9 | O=C1NCN(c2ccccc2)C12CCN(CCCSc1ccc(F)cc1)CC2 | > 39.9 | > 100 | > 100 | 19.4 | > 100 | 51.3 | > 100 | > 100 | > 100 | 41.6 | 65.4 | 25.2 | > 100 | > 100 | 58.5 | > 100 | > 100 | > 63.6 | > 100 | > 79.2
10 | N=C(N)c1ccc(-c2ccc(-c3ccc(C(=N)N)cc3)o2)cc1 | > 100 | 71.7 | > 100 | > 100 | > 100 | > 100 | > 100 | > 100 | > 100 | > 100 | > 100 | > 100 | > 100 | > 100 | > 100 | > 100 | 40 | > 100 | 57.3 | > 100
11 | CC[C@]12C=CCN3CCC4(c5cc(N=Nc6ccc([N+](=O)[O-])cc6)c(OC)cc5N(C)[C@H]4[C@@](O)(C(=O)OC)[C@@H]1OC(C)=O)[C@@H]32 (stereo not given in full) | > 100 | > 100 | > 100 | 23.9 | > 100 | 33.2 | 30.8 | 46.1 | 16.8 | 8.62 | 33.2 | 35.9 | > 100 | > 100 | 45.8 | > 100 | > 100 | 28.1 | 59.8 | 34.6
